Experimental data published in patent publication US8673957B2, “Fluorescent probe” (Tetsuo Nagano, priority 2003, dated 2014).

Columns and labels:
[1] = Reaction with nitrogen monoxide (NOC 13 as nitrogen monoxide generating agent), excitation/fluorescence spectra and HPLC; conditions: 1 hour, 0.1 M sodium phosphate buffer (pH 7.4)
Protocol: NOC 13, which is a nitrogen monoxide generating agent, was added to Compound (7), and changes of excitation and fluorescence emission spectra were measured. The compound (7) at 5 μM (cosolvent: 0.1% DMSO) and NOC 13 were incubated at 37° C. for 1 hour in 0.1 M sodium phosphate buffer (pH 7.4), and then excitation and fluorescence spectra were measured. The measurement was performed with slit widths of Ex/Em=2.5/2.5 nm, excitation wavelength of 520 nm, and emission wavelength of 535 nm.

[2] = Effect of pH on the fluorescence intensity; format: physicochemical; conditions: 0.1 M sodium phosphate buffer, 0.1% DMSO, pH range of from 3 to 13
Protocol: Compounds (7) and (8) were dissolved in 0.1 M sodium phosphate buffer (cosolvents 0.1% DMSO) adjusted to various pH values, and fluorescence was measured in the same manner as those in the aforementioned (b). […] Therefore, according to the measurement of nitrogen monoxide by using the compound of the present invention, extremely high accuracy of the measurement is achieved for a biosample with pH fluctuation.

[3] = Fluorescence spectrum: fluorescence characteristics and quantum yield; format: physicochemical; conditions: 0.1 M sodium phosphate buffer (pH 7.4), 20° C.
Protocol: The fluorescence characteristics of Compound (7) and Compound (8) were measured. The quantum yield was measured by using F-4500 (Hitachi), and the other spectra were measured by using LS50B (Perkin Elmer). The measurement was performed at 20° C. for a solution of a sample dissolved in 0.1 M sodium phosphate buffer (pH 7.4) using dimethyl sulfoxide of less than 0.2% as a cosolvent. The quantum yield was calculated relative to that of fluorescein, which was 0.85 in aqueous 0.1 M NaOH. When similar quantum yield measurements were performed for a compound of the formula (I) wherein R^6 and R^9 were hydrogen atoms (p-DAMBO) and a compound of the formula (II) wherein R^16 and R^19 were hydrogen atoms (p-DAMBO-T) as controls, the quantum yields were 0.001 and 0.40, respectively.

[4] = DMSO less than 0.2% as cosolvent

Emission maximum [3, 4] [nm]	Extinction coefficient [3, 4] [M⁻¹ cm⁻¹]	Extinction maximum [3, 4] [nm]	Relative quantum yield ([3]; relative to fluorescein (0.85 in aqueous 0.1 M NaOH))	SMILES	rate of reaction with nitrogen monoxide (HPLC of product) ([1]; compound at 5 μM with NOC 13, 37° C.)	change of fluorescence after addition of NOC 13 ([1]; compound at 5 μM, NOC 13 0-5.0 μM, 37° C., Ex 520 nm / Em 535 nm)	change in fluorescence intensity with pH [2]
–	–	–	–	CC1=C(CCC(=O)O)C(C)=[N+]2C1=C(c1ccc(N)c(N)c1)c1c(C)c(CCC(=O)O)c(C)n1[B-]2(F)F [Compound (7), 8-(3,4-Diaminophenyl)-2,6-bis(2-carboxyethyl)-4,4-difluoro-1,3,5,7-tetramethyl-4-bora-3a,4a-diaza-s-indacene]	extremely rapid reaction	Increase of fluorescence depending on the concentration of added NOC 13	–
537	56000	521	0.74	CC1=C(CCC(=O)O)C(C)=[N+]2C1=C(c1ccc3[nH]nnc3c1)c1c(C)c(CCC(=O)O)c(C)n1[B-]2(F)F [Compound (8), 8-(5-Benzotriazolyl)-2,6-bis(2-carboxyethyl)-4,4-difluoro-1,3,5,7-tetramethyl-4-bora-3a,4a-diaza-s-indacene]	–	–	Almost no change in the fluorescence intensity
